Experimental data as given in BigSolDB 2.1.

CO/N=C1\C[C@]2(C[C@@H]3C[C@@H](C/C=C(\C)C[C@@H](C)/C=C/C=C4\CO[C@@H]5[C@H](O)C(C)=C[C@@H](C(=O)O3)[C@]45O)O2)O[C@H](/C(C)=C/C(C)C)[C@H]1C
solubility (mole fraction)
Conditions | 278.15 K | 283.15 K | 288.15 K | 293.15 K | 298.15 K | 303.15 K | 308.15 K | 313.15 K | 318.15 K | 323.15 K
in ethanol | 0.0532 | 0.0674 | 0.0814 | 0.097 | 0.114 | 0.133 | 0.153 | 0.173 | 0.196 | 0.223
in ethylene glycol | 0.00364 | 0.0049 | 0.00631 | 0.00796 | 0.00975 | 0.0117 | 0.0137 | 0.0157 | 0.0181 | 0.021
in isopropanol | 0.00799 | 0.0107 | 0.0139 | 0.0178 | 0.0211 | 0.0253 | 0.0296 | 0.0346 | 0.04 | 0.0455
in methanol | 0.0243 | 0.0306 | 0.0383 | 0.0454 | 0.0545 | 0.0634 | 0.0729 | 0.0822 | 0.0927 | 0.105
in water | 3.75e-06 | 5.13e-06 | 6.71e-06 | 8.61e-06 | 1.08e-05 | 1.33e-05 | 1.59e-05 | 1.85e-05 | 2.14e-05 | 2.49e-05
